From the NIST ThermoML archive (doi:10.1021/je900137r)

Test: molar heat capacity at saturation pressure
Settings: Liquid, Vacuum adiabatic calorimetry

CCC [propane]
Settings | molar heat capacity [J/K/mol]
251.83 K | 103.62
252.74 K | 103.41
254.37 K | 104.07
255.27 K | 103.99
256.92 K | 104.47
257.8 K | 104.55
259.46 K | 104.97
260.32 K | 105.39
262 K | 106
262.85 K | 106.36
264.54 K | 106.11
265.38 K | 106.45
267.08 K | 107.17
267.9 K | 107.71
267.92 K | 107.58
269.62 K | 107.64
270.42 K | 108.4
270.71 K | 108.16
271.49 K | 109.25
272.15 K | 109.03
272.92 K | 109.16
273.04 K | 108.7
273.85 K | 109.09
274.7 K | 109.64
275.38 K | 109.29
275.42 K | 110.08
276.2 K | 109.72
277.24 K | 110.22
277.72 K | 110.44
277.92 K | 110.44
278.57 K | 110.68
279.78 K | 110.83
280.07 K | 110.92
280.41 K | 111.44
280.93 K | 111.66
282.32 K | 111.64
282.41 K | 112.19
282.91 K | 112.06
283.3 K | 112.78
284.77 K | 113.05
284.86 K | 112.93
285.41 K | 112.26
285.68 K | 112.86
287.13 K | 113.09
287.41 K | 113.95
287.91 K | 113.12
288.05 K | 113.08
289.5 K | 114.17
289.95 K | 114.64
290.41 K | 114.75
290.43 K | 114.57
291.86 K | 114.95
292.5 K | 115.46
292.81 K | 115.77
292.93 K | 115.51
294.24 K | 115.29
295.04 K | 116.36
295.21 K | 116
295.44 K | 116.88
296.61 K | 116.56
297.59 K | 117.55
297.6 K | 116.98
297.96 K | 117.85
298.99 K | 117.8
300 K | 118.27
300.14 K | 118.94
300.48 K | 117.96
301.38 K | 118.85
302.4 K | 119.55
302.69 K | 119.67
303.01 K | 118.38
303.77 K | 119.3
304.81 K | 120.27
305.25 K | 120.48
305.54 K | 119.64
306.16 K | 120.81
307.23 K | 121.32
307.82 K | 121.03
308.07 K | 121.52
308.57 K | 122.04
309.65 K | 121.95
310.38 K | 122.63
310.62 K | 122.47
310.98 K | 123.64
312.07 K | 123.46
312.95 K | 123.93
313.15 K | 124.63
313.4 K | 124.69
314.51 K | 124.14
315.53 K | 124.76
315.71 K | 125.89
315.83 K | 124.99
318.12 K | 125.37
318.27 K | 126.41
323.24 K | 129.01
323.35 K | 129.31
325.84 K | 130.18
325.93 K | 131.3
328.44 K | 132.33
328.51 K | 133.4
331.06 K | 135.04
331.1 K | 135.99
333.69 K | 136.44
333.7 K | 137.68
336.31 K | 139.1
336.32 K | 139.03
338.93 K | 140.95
338.96 K | 142.73
341.56 K | 144.64
341.61 K | 145.97
344.21 K | 149.14
344.27 K | 148.36
